Results reported in patent publication US20240336611A1 (Insilico Medicine IP Limited, priority 2021, published 2024).

These molecules were tested against T1, TNIK kinase [amino acid sequence (1-367), Invitrogen] (Homo sapiens, UniProt Q9UKE5) (assay: TNIK kinase inhibition assay (Z-lyte FRET-peptide)). Conditions: 0.625 nM TNIK kinase, 2 μM Ser/Thr 7 peptide, 64 μM ATP, one hour at room temperature.
T1 construct: purchased Invitrogen
Assay type: biochemical
Experimental: Z-lyte assay kit was purchased from Invitrogen. A site-specific protease recognizes and cleaves non-phosphorylated FRET-peptides. Phosphorylation of FRET-peptides suppresses cleavage by protease and will maintain FRET from donor to acceptor.
5 μl of Development Reagent A solution was then added to cleave non-phosphorylated peptide with a dilution 1:65000 in Development Buffer B. The assay plate was incubated at room temperature for another one hour and then read in the Envision plate reader (PerkinElmer).

T1 sequence (Q9UKE5 1-367): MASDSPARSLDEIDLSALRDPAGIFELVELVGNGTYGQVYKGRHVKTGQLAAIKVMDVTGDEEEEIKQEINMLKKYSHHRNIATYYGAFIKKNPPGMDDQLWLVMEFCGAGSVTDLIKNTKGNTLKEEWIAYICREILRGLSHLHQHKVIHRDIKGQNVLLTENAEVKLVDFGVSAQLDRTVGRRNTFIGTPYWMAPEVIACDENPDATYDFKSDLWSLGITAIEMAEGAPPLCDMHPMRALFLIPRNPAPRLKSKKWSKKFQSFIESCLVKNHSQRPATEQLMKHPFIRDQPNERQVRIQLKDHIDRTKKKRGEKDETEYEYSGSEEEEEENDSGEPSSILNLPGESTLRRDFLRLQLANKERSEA

IC50 | Molecule
> 0.15 µM | CC(C)n1cnc(-c2ccc(F)cc2)c1-c1cnc(C(=O)Nc2ccc(N3CCN(C)CC3)cc2)s1 [Compound 1, 5-(4-(4-fluorophenyl)-1-isopropyl-1H-imidazol-5-yl)-N-(4-(4-methylpiperazin-1-yl)phenyl)thiazole-2-carboxamide]
0.012 to 0.15 µM | CN1CCN(c2ccc(NC(=O)c3c[nH]c(-c4c(-c5ccc(F)cc5)ncn4C4CC4)n3)cc2)CC1 [Compound 15, 3′-cyclopropyl-5′-(4-fluorophenyl)-N-(4-(4-methylpiperazin-1-yl)phenyl)-1H,3′H-[2,4′-biimidazole]-4-carboxamide]
0.001 to 0.012 µM | CC(C)n1cnc(-c2ccc(F)cc2)c1-c1nc(C(=O)Nc2ccc(N3CCN(C)CC3)c(F)c2F)c[nH]1 [Compound 17, N-(2,3-difluoro-4-(4-methylpiperazin-1-yl)phenyl)-5′-(4-fluorophenyl)-3′-isopropyl-1H,3′H-[2,4′-biimidazole]-4-carboxamide]
0.001 to 0.012 µM | CC(C)n1cnc(-c2ccc(F)cc2)c1-c1ncc(C(=O)Nc2ccc(N3CCC4(CC3)CN(C)C4)cc2)[nH]1 [Compound 19, 5′-(4-fluorophenyl)-3′-isopropyl-N-(4-(2-methyl-2,7-diazaspiro[3.5]nonan-7-yl)phenyl)-1H,3′H-[2,4′-biimidazole]-5-carboxamide]
0.001 to 0.012 µM | CC(C)n1cnc(-c2ccc(F)cc2)c1-c1csc(C(=O)Nc2ccc(N3C[C@H]4CC[C@@H](C3)N4C)cn2)n1 [Compound 38, 4-(4-(4-fluorophenyl)-1-isopropyl-1H-imidazol-5-yl)-N-(5-((1R,5S)-8-methyl-3,8-diazabicyclo[3.2.1]octan-3-yl)pyridin-2-yl)thiazole-2-carboxamide]
0.012 to 0.15 µM | CC(C)n1cnc(-c2ccc(F)cc2)c1-c1coc(C(=O)Nc2ccc(N3CC4CCC(C3)N4C)cn2)n1 [Compound 39, 4-(4-(4-fluorophenyl)-1-isopropyl-1H-imidazol-5-yl)-N-(5-(8-methyl-3,8-diazabicyclo[3.2.1]octan-3-yl)pyridin-2-yl)oxazole-2-carboxamide]
> 0.15 µM | CC(C)n1cnc(-c2ccc(F)cc2)c1-c1nc(C(=O)Nc2ncc(N3CCN(C)CC3)cn2)cs1 [Compound 46, 2-(4-(4-fluorophenyl)-1-isopropyl-1H-imidazol-5-yl)-N-(5-(4-methylpiperazin-1-yl)pyrimidin-2-yl)thiazole-4-carboxamide]
0.001 to 0.012 µM | CN1C2CCC1CN(c1ccc(NC(=O)c3c[nH]c(-c4c(-c5ccc(F)cc5)ncn4C4CC4)n3)nc1)C2 [Compound 47, 3′-cyclopropyl-5′-(4-fluorophenyl)-N-(5-(8-methyl-3,8-diazabicyclo[3.2.1]octan-3-yl)pyridin-2-yl)-1H,3′H-[2,4′-biimidazole]-4-carboxamide]
0.012 to 0.15 µM | CN1C2CC1CN(c1ccc(NC(=O)c3c[nH]c(-c4c(-c5ccc(F)cc5)ncn4C4CC4)n3)nc1)C2 [Compound 49, 3′-cyclopropyl-5′-(4-fluorophenyl)-N-(5-(6-methyl-3,6-diazabicyclo[3.1.1]heptan-3-yl)pyridin-2-yl)-1H,3′H-[2,4′-biimidazole]-4-carboxamide]
0.001 to 0.012 µM | CN1C2CC1CN(c1ccc(NC(=O)c3c[nH]c(-c4c(-c5ccc(F)cc5)ncn4C4CCC4)n3)nc1)C2 [Compound 50, 3′-cyclobutyl-5′-(4-fluorophenyl)-N-(5-(6-methyl-3,6-diazabicyclo[3.1.1]heptan-3-yl)pyridin-2-yl)-1H,3′H-[2,4′-biimidazole]-4-carboxamide]
0.001 to 0.012 µM | CC(C)n1cnc(-c2ccc(F)cc2)c1-c1nc(C(=O)Nc2ccc(C3CCN(C)CC3)cn2)c[nH]1 [Compound 52, 5′-(4-fluorophenyl)-3′-isopropyl-N-(5-(1-methylpiperidin-4-yl)pyridin-2-yl)-1H,3′H-[2,4′-biimidazole]-4-carboxamide]
0.012 to 0.15 µM | O=C(Nc1ccc(N2CCOCC2)cn1)c1c[nH]c(-c2c(-c3ccc(F)cc3)ncn2C2CC(F)(F)C2)n1 [Compound 67, 3′-(3,3-difluorocyclobutyl)-5′-(4-fluorophenyl)-N-(5-morpholinopyridin-2-yl)-1H,3′H-[2,4′-biimidazole]-4-carboxamide]
> 0.15 µM | O=C(Nc1ccc(N2CCC2)cn1)c1coc(-c2c(-c3ccc(F)cc3)ncn2C2CC(F)(F)C2)n1 [Compound 69, N-(5-(azetidin-1-yl)pyridin-2-yl)-2-(1-(3,3-difluorocyclobutyl)-4-(4-fluorophenyl)-1H-imidazol-5-yl)oxazole-4-carboxamide]
0.012 to 0.15 µM | O=C(Nc1ccc(N2CCC2)cn1)c1c[nH]c(-c2c(-c3ccc(F)cc3)ncn2C2CC(F)(F)C2)n1 [Compound 73, N-(5-(azetidin-1-yl)pyridin-2-yl)-3′-(3,3-difluorocyclobutyl)-5′-(4-fluorophenyl)-1H,3′H-[2,4′-biimidazole]-4-carboxamide]

The remaining lines, values behind:

Molecule | IC50
2-(4-(4-fluorophenyl)-1-isopropyl-1H-imidazol-5-yl)-N-(5-((1R,5S)-8-methyl-8-azabicyclo[3.2.1]octan-3-yl)pyridin-2-yl)oxazole-4-carboxamide [Compound 62] | 0.012 to 0.15 µM
CC(C)n1cnc(-c2ccc(F)cc2)c1-c1ncc(C(=O)Nc2ccc(N3CCN(C)CC3)cc2)s1 [Compound 3, 2-(4-(4-fluorophenyl)-1-isopropyl-1H-imidazol-5-yl)-N-(4-(4-methylpiperazin-1-yl)phenyl)thiazole-5-carboxamide] | > 0.15 µM
CC(C)n1cnc(-c2ccc(F)cc2)c1-c1csc(C(=O)Nc2ccc(N3CCN(C)CC3)cc2)n1 [Compound 4, 4-(4-(4-fluorophenyl)-1-isopropyl-1H-imidazol-5-yl)-N-(4-(4-methylpiperazin-1-yl)phenyl)thiazole-2-carboxamide] | 0.001 to 0.012 µM
CC(C)n1cnc(-c2ccc(F)cc2)c1-c1nc(C(=O)Nc2ccc(N3CCN(C)CC3)c(F)c2)c[nH]1 [Compound 16, N-(3-fluoro-4-(4-methylpiperazin-1-yl)phenyl)-5′-(4-fluorophenyl)-3′-isopropyl-1H,3′H-[2,4′-biimidazole]-4-carboxamide] | 0.001 to 0.012 µM
Cc1cc(NC(=O)c2cnc(-c3c(-c4ccc(F)cc4)ncn3C(C)C)[nH]2)ccc1N1CCN(C)CC1 [Compound 18, 5′-(4-fluorophenyl)-3′-isopropyl-N-(3-methyl-4-(4-methylpiperazin-1-yl)phenyl)-1H,3′H-[2,4′-biimidazole]-5-carboxamide] | 0.012 to 0.15 µM
CC(C)n1cnc(-c2ccc(F)cc2)c1-c1ncc(C(=O)Nc2ccc(N3CC4(CN(C)C4)C3)cc2)[nH]1 [Compound 20, 5′-(4-fluorophenyl)-3′-isopropyl-N-(4-(6-methyl-2,6-diazaspiro[3.3]heptan-2-yl)phenyl)-1H,3′H-[2,4′-biimidazole]-5-carboxamide] | 0.001 to 0.012 µM
CC(C)n1cnc(-c2ccc(F)cc2)c1-c1nc(C(=O)Nc2ccc(N3CCN(C)CC3)nc2)c[nH]1 [Compound 22, 5′-(4-fluorophenyl)-3′-isopropyl-N-(6-(4-methylpiperazin-1-yl)pyridin-3-yl)-1H,3′H-[2,4′-biimidazole]-4-carboxamide] | 0.012 to 0.15 µM
CC(C)n1cnc(-c2ccc(F)cc2)c1-c1nc(C(=O)Nc2ccc(N3C[C@H]4CC[C@@H](C3)N4C)nc2)c[nH]1 [Compound 25, 5′-(4-fluorophenyl)-3′-isopropyl-N-(6-((1R,5S)-8-methyl-3,8-diazabicyclo[3.2.1]octan-3-yl)pyridin-3-yl)-1H,3′H-[2,4′-biimidazole]-4-carboxamide] | 0.001 to 0.012 µM
CC(C)n1cnc(-c2ccc(F)cc2)c1-c1coc(C(=O)Nc2ccc(N3CCN(C)CC3)cc2F)n1 [Compound 27, N-(2-fluoro-4-(4-methylpiperazin-1-yl)phenyl)-4-(4-(4-fluorophenyl)-1-isopropyl-1H-imidazol-5-yl)oxazole-2-carboxamide] | 0.012 to 0.15 µM
CN1CCN(c2ccc(NC(=O)c3csc(-c4c(-c5ccc(F)cc5)nc5n4CCOC5)n3)nc2)CC1 [Compound 29, 2-(2-(4-fluorophenyl)-6,8-dihydro-5H-imidazo[2,1-c][1,4]oxazin-3-yl)-N-(5-(4-methylpiperazin-1-yl)pyridin-2-yl)thiazole-4-carboxamide] | 0.001 to 0.012 µM
CN1[C@@H]2CC[C@H]1CN(c1ccc(NC(=O)c3c[nH]c(-c4c(-c5ccc(F)cc5)ncn4C4CCC4)n3)nc1)C2 [Compound 48, 3′-cyclobutyl-5′-(4-fluorophenyl)-N-(5-((1R,5S)-8-methyl-3,8-diazabicyclo[3.2.1]octan-3-yl)pyridin-2-yl)-1H,3′H-[2,4′-biimidazole]-4-carboxamide] | 0.001 to 0.012 µM
CC(C)n1cnc(-c2ccc(F)cc2)c1-c1nc(C(=O)Nc2ccc(C3C[C@H]4CC[C@@H](C3)N4C)cn2)cs1 (stereo partly drawn) [Compound 60, 2-(4-(4-fluorophenyl)-1-isopropyl-1H-imidazol-5-yl)-N-(5-((1R,5S)-8-methyl-8-azabicyclo[3.2.1]octan-3-yl)pyridin-2-yl)thiazole-4-carboxamide] | 0.001 to 0.012 µM
O=C(Nc1ccc(N2CCOCC2)cn1)c1coc(-c2c(-c3ccc(F)cc3)ncn2C2COC2)n1 [Compound 71, 2-(4-(4-fluorophenyl)-1-(oxetan-3-yl)-1H-imidazol-5-yl)-N-(5-morpholinopyridin-2-yl)oxazole-4-carboxamide] | > 0.15 µM
O=C(Nc1ccc(N2CCC2)cn1)c1csc(-c2c(-c3ccc(F)cc3)ncn2C2COC2)n1 [Compound 75, N-(5-(azetidin-1-yl)pyridin-2-yl)-2-(4-(4-fluorophenyl)-1-(oxetan-3-yl)-1H-imidazol-5-yl)thiazole-4-carboxamide] | 0.001 to 0.012 µM
O=C(Nc1ccc(N2CCCC2)cn1)c1c[nH]c(-c2c(-c3ccc(F)cc3)ncn2C2CC(F)(F)C2)n1 [Compound 76, 3′-(3,3-difluorocyclobutyl)-5′-(4-fluorophenyl)-N-(5-(pyrrolidin-1-yl)pyridin-2-yl)-1H,3′H-[2,4′-biimidazole]-4-carboxamide] | 0.012 to 0.15 µM
